# Experimental data as given in PubChem BioAssay AID2060483 (Molecular Pharmacology Branch, DTP, NCI, 2025).
# Tested on: K24384-001-R-PDC complex spheroids, viability
# Test: Anticancer human tumor K24384-001-R-PDC patient-derived pancreatic adenocarcinoma cell line growth inhibition [GQUAD]
# Settings: for IC50: curve of first compound; for viability, T/C: stronger effect = lower value
# Procedure, shortened: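 Viability of tumor cells grown as complex spheroids with endothelial and stromal cells, exposed to drug combinations. Top concentration at or near clinical Cmax (else 10 microM), diluted in half-log increments.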
# [1] = second compound 0.0316 µM, first compound 0.0316 µM
# [2] = second compound 0.0316 µM, first compound 0.316 µM
# [3] = second compound 0.1 µM, first compound 0.0316 µM
# [4] = second compound 0.1 µM, first compound 0.316 µM
# [5] = second compound 0.316 µM, first compound 0.0316 µM
# [6] = second compound 0.316 µM, first compound 0.316 µM
# [7] = second compound 1 µM, first compound 0.0316 µM
# [8] = second compound 1 µM, first compound 0.316 µM
# [9] = second compound 3.16 µM, first compound 0.0316 µM
# [10] = second compound 3.16 µM, first compound 0.316 µM
# [11] = second compound 10 µM, first compound 0.0316 µM
# [12] = second compound 10 µM, first compound 0.316 µM
# 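Also: spheroids exposed to compounds for seven days.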
smiles,measurement,setting,value
CCc1c2c(nc3ccc(O)cc13)-c1cc3c(c(=O)n1C2)COC(=O)[C@]3(O)CC + Cc1[nH]c2ccc(F)cc2c1-c1nc2c3cccnc3c3ncccc3c2[nH]1,IC50,second compound 0.0316 µM,9.41 nM
same,IC50,second compound 0.1 µM,11.4 nM
same,IC50,second compound 0.316 µM,9.43 nM
same,IC50,second compound 1 µM,11.7 nM
same,IC50,second compound 3.16 µM,6.05 nM
same,IC50,second compound 10 µM,4.02 nM
same,"viability, T/C","second compound 0.0316 µM, first compound 0.000999 µM",96.3%
same,"viability, T/C","second compound 0.0316 µM, first compound 0.00316 µM",62.2%
same,"viability, T/C","second compound 0.0316 µM, first compound 0.00999 µM",53.5%
same,"viability, T/C",[1],38.9%
same,"viability, T/C","second compound 0.0316 µM, first compound 0.0999 µM",29.3%
same,"viability, T/C",[2],27.2%
same,"viability, T/C","second compound 0.1 µM, first compound 0.000999 µM",79.8%
same,"viability, T/C","second compound 0.1 µM, first compound 0.00316 µM",72.7%
same,"viability, T/C","second compound 0.1 µM, first compound 0.00999 µM",51.5%
same,"viability, T/C",[3],33.1%
same,"viability, T/C","second compound 0.1 µM, first compound 0.0999 µM",31.3%
same,"viability, T/C",[4],21.4%
same,"viability, T/C","second compound 0.316 µM, first compound 0.000999 µM",72%
same,"viability, T/C","second compound 0.316 µM, first compound 0.00316 µM",61.3%
same,"viability, T/C","second compound 0.316 µM, first compound 0.00999 µM",47.5%
same,"viability, T/C",[5],41.8%
same,"viability, T/C","second compound 0.316 µM, first compound 0.0999 µM",28.3%
same,"viability, T/C",[6],23.7%
same,"viability, T/C","second compound 1 µM, first compound 0.000999 µM",70.6%
same,"viability, T/C","second compound 1 µM, first compound 0.00316 µM",57.1%
same,"viability, T/C","second compound 1 µM, first compound 0.00999 µM",51.5%
same,"viability, T/C",[7],42.2%
same,"viability, T/C","second compound 1 µM, first compound 0.0999 µM",39.9%
same,"viability, T/C",[8],26.8%
same,"viability, T/C","second compound 3.16 µM, first compound 0.000999 µM",65%
same,"viability, T/C","second compound 3.16 µM, first compound 0.00316 µM",55.5%
same,"viability, T/C","second compound 3.16 µM, first compound 0.00999 µM",41.3%
same,"viability, T/C",[9],38.1%
same,"viability, T/C","second compound 3.16 µM, first compound 0.0999 µM",30.8%
same,"viability, T/C",[10],13.7%
same,"viability, T/C","second compound 10 µM, first compound 0.000999 µM",60.4%
same,"viability, T/C","second compound 10 µM, first compound 0.00316 µM",48.9%
same,"viability, T/C","second compound 10 µM, first compound 0.00999 µM",43.8%
same,"viability, T/C",[11],28.4%
same,"viability, T/C","second compound 10 µM, first compound 0.0999 µM",15.1%
same,"viability, T/C",[12],11%
COc1cc(C2c3cc4c(cc3C(OC3OC5COC(C)OC5C(O)C3O)C3COC(=O)C23)OCO4)cc(OC)c1O (centres undefined) + Cc1[nH]c2ccc(F)cc2c1-c1nc2c3cccnc3c3ncccc3c2[nH]1,IC50,second compound 0.0316 µM,3000 nM
same,IC50,second compound 0.1 µM,1320 nM
same,IC50,second compound 0.316 µM,1940 nM
same,IC50,second compound 1 µM,2780 nM
same,IC50,second compound 3.16 µM,1860 nM
same,IC50,second compound 10 µM,688 nM
same,"viability, T/C",[1],104%
same,"viability, T/C","second compound 0.0316 µM, first compound 0.1 µM",96%
same,"viability, T/C",[2],73.3%
same,"viability, T/C","second compound 0.0316 µM, first compound 1 µM",71%
same,"viability, T/C","second compound 0.0316 µM, first compound 3.16 µM",47.1%
same,"viability, T/C","second compound 0.0316 µM, first compound 10 µM",33.5%
same,"viability, T/C",[3],90%
same,"viability, T/C","second compound 0.1 µM, first compound 0.1 µM",94.7%
same,"viability, T/C",[4],68.8%
same,"viability, T/C","second compound 0.1 µM, first compound 1 µM",57%
same,"viability, T/C","second compound 0.1 µM, first compound 3.16 µM",37.5%
same,"viability, T/C","second compound 0.1 µM, first compound 10 µM",35.9%
same,"viability, T/C",[5],113%
same,"viability, T/C","second compound 0.316 µM, first compound 0.1 µM",99.5%
same,"viability, T/C",[6],75.6%
same,"viability, T/C","second compound 0.316 µM, first compound 1 µM",59.3%
same,"viability, T/C","second compound 0.316 µM, first compound 3.16 µM",44.1%
same,"viability, T/C","second compound 0.316 µM, first compound 10 µM",35.2%
same,"viability, T/C",[7],85%
same,"viability, T/C","second compound 1 µM, first compound 0.1 µM",80.7%
same,"viability, T/C",[8],68.7%
same,"viability, T/C","second compound 1 µM, first compound 1 µM",67.6%
same,"viability, T/C","second compound 1 µM, first compound 3.16 µM",44.5%
same,"viability, T/C","second compound 1 µM, first compound 10 µM",38.1%
same,"viability, T/C",[9],83.2%
same,"viability, T/C","second compound 3.16 µM, first compound 0.1 µM",71.8%
same,"viability, T/C",[10],67.6%
same,"viability, T/C","second compound 3.16 µM, first compound 1 µM",69.6%
same,"viability, T/C","second compound 3.16 µM, first compound 3.16 µM",33.2%
same,"viability, T/C","second compound 3.16 µM, first compound 10 µM",30.8%
same,"viability, T/C",[11],55.4%
same,"viability, T/C","second compound 10 µM, first compound 0.1 µM",59.5%
same,"viability, T/C",[12],53.1%
same,"viability, T/C","second compound 10 µM, first compound 1 µM",47.7%
same,"viability, T/C","second compound 10 µM, first compound 3.16 µM",24.5%
same,"viability, T/C","second compound 10 µM, first compound 10 µM",19.8%
